Results on eight compounds are retold here after paper PMC3498832, “Mechanistic and structural basis for inhibition of thymidylate synthase ThyX” (Open Biology, 2012).

Molecules are shown by their SMILES. Like-named read-outs stand apart in the source and are kept apart here. Marks after values point to notes of the source that are not given here.

Test [1] has as its system E. coli FE010 (ΔthyA::PBCV-1 thyX tdk+). The experiment in a line: Growth inhibition (CFU) of genetically modified E. coli dependent on thyX.
Protocol: (§1) Escherichia coli MG1655 (wild-type, thyA^+ tdk^+) and FE010 [ΔthyA::PBCV-1 thyX tdk^+] [26] were grown at 37°C either in thymidine-containing LB medium or thymidine-free M9 minimal medium supplemented with 0.1 mM CaCl2, 2 mM MgSO4 and 0.2 per cent casamino acids (Difco). IPTG-induced overexpression of target protein PBCV-1 ThyX was used to test titration of inhibitor in the bacterial cell. When necessary, thymidine (40 µg ml^−1) and kanamycin (40 µg ml^−1) were added to the growth medium. The cells were then harvested and washed two times with M9 medium to remove the remaining thymidine. The cells were diluted to an OD600 of approximately 0.1 using M9 medium and 1 ml of cell suspension was transferred to 24-well microplates (Nunc). Compounds were dissolved in DMSO and were added at indicated concentrations. No cells and DMSO-only controls were included for each medium composition. The plates were closed with plastic lids and incubated at 37°C with shaking at 160 r.p.m. After 24 h of incubation, 100 µl of 10-fold serial dilutions were plated onto LB plates or LB plates supplemented with kanamycin (40 µg ml^−1) when appropriate. Colonies were enumerated after overnight incubation at 37°C. Colony-forming units (CFU) per millilitre for each growth condition were determined from three independent experiments.
The subject of a further test is C. trachomatis ThyX. As to the kind of experiment: ThyX activity with isolated C. trachomatis ThyX. The format is biochemical, Chlamydia trachomatis.
For test [2], the system named is E. coli FE010 carrying plasmid overexpressing PBCV-1 thyX. As to the kind of experiment: Growth inhibition with IPTG-induced overexpression of PBCV-1 ThyX (selectivity factor, ratio of CFUs).
Protocol: Escherichia coli MG1655 (wild-type, thyA^+ tdk^+) and FE010 [ΔthyA::PBCV-1 thyX tdk^+] [26] were grown at 37°C either in thymidine-containing LB medium or thymidine-free M9 minimal medium supplemented with 0.1 mM CaCl2, 2 mM MgSO4 and 0.2 per cent casamino acids (Difco). IPTG-induced overexpression of target protein PBCV-1 ThyX was used to test titration of inhibitor in the bacterial cell. When necessary, thymidine (40 µg ml^−1) and kanamycin (40 µg ml^−1) were added to the growth medium. The cells were then harvested and washed two times with M9 medium to remove the remaining thymidine. The cells were diluted to an OD600 of approximately 0.1 using M9 medium and 1 ml of cell suspension was transferred to 24-well microplates (Nunc). Compounds were dissolved in DMSO and were added at indicated concentrations. No cells and DMSO-only controls were included for each medium composition. The plates were closed with plastic lids and incubated at 37°C with shaking at 160 r.p.m. […] Colony-forming units (CFU) per millilitre for each growth condition were determined from three independent experiments.
The values reported are means of three individual experiments. Hundred per cent refers to cell viability, measured as CFU, in the absence of inhibitor. […]
Test [3] concerns the target T1, human thymidylate synthase (Homo sapiens, UniProt P04818).
T1 construct: made in house; host or cells: E. coli BL21
As to the kind of experiment: Human thymidylate synthase activity. The format is biochemical. To be noted: data not shown.

Test [4] concerns E. coli MG1655 (wild-type, thyA+ tdk+). The experiment in a line: Growth inhibition (CFU) of isogenic wild-type E. coli. The settings on record: Escherichia coli, MG1655, 24 h, read-out: growth inhibition.
Protocol: as §1
In a further test the target is T2, H. pylori ThyX (Helicobacter pylori, UniProt O26061).
T2 construct: made in house; host or cells: E. coli BL21
T2 sequence (O26061 1-208): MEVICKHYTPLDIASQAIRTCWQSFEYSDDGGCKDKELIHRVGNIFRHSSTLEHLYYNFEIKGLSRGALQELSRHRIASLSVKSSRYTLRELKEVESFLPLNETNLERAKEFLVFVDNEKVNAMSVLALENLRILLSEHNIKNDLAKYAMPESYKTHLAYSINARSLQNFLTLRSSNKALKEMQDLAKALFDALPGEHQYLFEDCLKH
The format is biochemical.

A further test concerns the target T3, M. tuberculosis ThyX (Mycobacterium tuberculosis, UniProt P9WG57).
T3 construct: made in house; host or cells: E. coli BL21
The format is biochemical.

For test [5], the target named is T4, PBCV-1 ThyX (Paramecium bursaria Chlorella virus 1, UniProt O41156).
T4 construct: made in house; host or cells: E. coli BL21
T4 sequence (O41156 whole entry): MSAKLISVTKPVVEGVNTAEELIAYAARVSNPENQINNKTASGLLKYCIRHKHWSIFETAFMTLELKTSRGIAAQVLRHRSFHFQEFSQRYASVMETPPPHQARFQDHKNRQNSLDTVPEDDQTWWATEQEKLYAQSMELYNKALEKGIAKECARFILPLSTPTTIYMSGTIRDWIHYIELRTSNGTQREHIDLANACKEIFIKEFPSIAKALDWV
The experiment in a line: NADPH oxidation assay of ThyX activity (decrease of A340). The format is biochemical, Paramecium bursaria chlorella virus (PBCV-1).

In test [6] the target is T4, PBCV-1 ThyX. The experiment in a line: 'deprotonation' activity (tritium release assay from [5-3H]dUMP). To be noted: compound 20 µM. The format is biochemical, Paramecium bursaria chlorella virus (PBCV-1).
Test [7] has as its target T4, PBCV-1 ThyX. The experiment in a line: ThyX assay under anaerobic conditions (NADPH oxidation at 340 nm, FAD reduction at 450 nm). The format is biochemical, Paramecium bursaria chlorella virus (PBCV-1). The settings on record: 100 μM dUMP or inhibitor, 400 μM NADPH, 77 μM ThyX bound FAD. How it is done: ThyX assays (100 μl) under anaerobic conditions contained 77 μM of PBCV-1 ThyX bound FAD in 300 mM NaCl, 1 mM MgCl2, 10 per cent glycerol (m/v) and 50 mM HEPES, pH 8.0. Samples were made anaerobic by repeatedly degassing with argon. Traces of oxygen were removed using the glucose oxidase system (60 units of glucose oxidase and catalase in the presence of 10 mM glucose). Where indicated, 100 μM dUMP, 100 μM inhibitor C8-C1 and 400 μM NADPH were added using an air-tight syringe. NADPH oxidation and FAD reduction were followed spectroscopically (optical path length 1 mm) at 340 and 450 nm, respectively.

Test [8] concerns the target T4, PBCV-1 ThyX. As to the kind of experiment: C8-C1 induced quenching of FAD fluorescence. The format is binding. To be noted: authors' unpublished data.
Protocol: We stress that the total PBCV-1 ThyX concentration used in these assays was 10 μM.
Test [9] has as its target T4, PBCV-1 ThyX. Also on record: method as in PMID 15471872. To be noted: cited from earlier work.
Another test relates to Thermotoga maritima ThyX. To be noted: T. maritima ThyX; no reference given; cited from earlier work.
[10] abbreviates: 10 µM total PBCV-1 ThyX, 5 µM dUMP, 200 µM NADPH, read-out: IC50 (µM) NADPH oxidation.

T3 sequence (P9WG57 whole entry): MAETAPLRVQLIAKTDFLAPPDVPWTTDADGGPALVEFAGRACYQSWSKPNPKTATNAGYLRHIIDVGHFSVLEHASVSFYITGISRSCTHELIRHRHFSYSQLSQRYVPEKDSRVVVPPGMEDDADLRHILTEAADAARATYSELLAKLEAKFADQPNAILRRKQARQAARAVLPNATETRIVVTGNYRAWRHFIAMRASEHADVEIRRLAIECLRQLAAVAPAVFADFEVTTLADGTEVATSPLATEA
T1 sequence (P04818 whole entry): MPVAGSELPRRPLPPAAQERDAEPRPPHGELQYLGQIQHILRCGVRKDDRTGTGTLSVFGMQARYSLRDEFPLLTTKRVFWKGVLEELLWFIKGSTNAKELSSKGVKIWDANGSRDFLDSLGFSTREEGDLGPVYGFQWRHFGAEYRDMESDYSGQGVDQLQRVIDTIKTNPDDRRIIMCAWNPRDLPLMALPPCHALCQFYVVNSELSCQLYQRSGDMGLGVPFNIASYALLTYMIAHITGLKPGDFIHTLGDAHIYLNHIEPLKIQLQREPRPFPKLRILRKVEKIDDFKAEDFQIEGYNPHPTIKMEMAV

The term inhibition denotes the percentage by which the read-out fell short of the control. In the case of `O=C1C=C(Br)C(=O)c2c(O)cccc21` [2E04, 2-bromo-8-hydroxy-1,4-naphthoquinone], in test [1] (1.5 μg ml−1, thymidine added), the “growth inhibition after addition of thymidine to the growth medium” value is recorded as “reversed”. For the same compound, the inhibition at 1.5 µg/mL in [1] (Escherichia coli, 24 h, read-out: inhibition of bacterial growth) was about 80%; in test [4], 10 to 15%. Moreover, the “effect on ThyX activity” value with C. trachomatis ThyX, on H. pylori ThyX and at M. tuberculosis ThyX was “specifically decreased the activity” in each case. The “effect of ThyX overexpression on growth inhibition (selectivity factor)” value in [2] (1.5 μg ml−1, with vs without IPTG induction) was “less-potent growth inhibition”. The “inhibitory effect on human thymidylate synthase” value in test [3] is on record as “No inhibitory effect”.

For orientation: IC50 means the concentration that inhibits the measured activity by half. As for `O=C(O)c1ccccc1NC1=CC(=O)c2c(O)cccc2C1=O` [B3-C1, 2-(5-hydroxy-1,4-dioxo-1,4-dihydronaphthalen-2-ylamino)benzoic acid], the IC50 on PBCV-1 ThyX [5] (setting [10]) is over 10 µM. In addition, the inhibition at 20 µM against PBCV-1 ThyX [6] was determined as 12 ± 6%.

For orientation: Kd means the equilibrium constant for the complex coming apart. For `COc1ccc(CC2=C(O)C(=O)c3ccccc3C2=O)cc1` [C8-C1, 2-hydroxy-3-(4-methoxybenzyl)-1,4-naphthoquinone], at PBCV-1 ThyX [5], the IC50 stood at 4.5 µM. The “inhibition modality with respect to NADPH” value at PBCV-1 ThyX [5] (IC50 plotted against NADPH concentration) is recorded as “tight-binding uncompetitive inhibition”. Also, the “inhibition modality with respect to dUMP” value against PBCV-1 ThyX [5] (IC50 plotted against dUMP concentration) is listed as “tight-binding competitive inhibitor”. Moreover, the Ki at PBCV-1 ThyX [5] (Ki after correcting for total enzyme and dUMP concentration, competitive with respect to dUMP) came out at 0.46 µM. The Ki on PBCV-1 ThyX [5] (apparent Ki (Morrison equation), with respect to dUMP, uncorrected) came out at 1.5 µM. In addition, the “Ki (uncompetitive, NADPH)” value on PBCV-1 ThyX [5] (with respect to NADPH) was 4.45 µM. For the same compound, on PBCV-1 ThyX [7], the “FAD reduction (nmol)” value was 0^b nmol and the “NADPH oxidation” value is recorded as 0 nmol. In addition, the inhibition at 20 µM against PBCV-1 ThyX [6] was 78 ± 4%. The same compound yielded a Kd at PBCV-1 ThyX [8] of about 0.4 µM. Besides, the “effect of ThyX overexpression on growth inhibition (selectivity factor)” value in test [2] (50 μg ml−1, with vs without IPTG induction) is given as “less-potent growth inhibition”.

For `O=C(CC1=C(O)C(=O)c2ccccc2C1=O)c1ccccc1` [E11-C1, 2-hydroxy-3-(2-oxo-2-phenylethyl)-1,4-naphthoquinone], at PBCV-1 ThyX [5] (setting [10]), the IC50 is 11 µM. The inhibition at 20 µM against PBCV-1 ThyX [6] amounted to 36 ± 5%.

As for `Cc1ccc(C(=O)CC2=C(O)C(=O)c3ccccc3C2=O)cc1` [F3-C1, 2-hydroxy-3-(2-oxo-2-p-tolylethyl)-1,4-naphthoquinone], the IC50 on PBCV-1 ThyX [5] (setting [10]) was found to be 7 µM. Further, the inhibition at 20 µM at PBCV-1 ThyX [6] was determined as 38 ± 7%.

For `COc1ccc(C(=O)CC2=C(O)C(=O)c3ccccc3C2=O)cc1` [G3-C1, 2-hydroxy-3-(2-(4-methoxyphenyl)-2-oxoethyl)-1,4-naphthoquinone], on PBCV-1 ThyX [5] (setting [10]), the IC50 amounted to 10 µM. At PBCV-1 ThyX [6], this compound displayed an inhibition at 20 µM of 22 ± 7%.

Regarding `O=C(CC1=C(O)C(=O)c2ccccc2C1=O)c1cccs1` [H3-C1, 2-hydroxy-3-(2-oxo-2-(thiophen-2-yl)ethyl)-1,4-naphthoquinone], the IC50 on PBCV-1 ThyX [5] (setting [10]) was 7 µM. 20 µM produced 38 ± 3% inhibition against PBCV-1 ThyX [6].

Turning to `O=c1ccn([C@H]2C[C@H](O)[C@@H](COP(=O)(O)O)O2)c(=O)[nH]1` [dUMP, 2′-deoxyuridine-5′-monophosphate, reference compound], the “FAD reduction (nmol)” value at PBCV-1 ThyX [7] was 8.9^a nmol. The “NADPH oxidation” value at PBCV-1 ThyX [7] came out at 11.3 nmol. For the same compound, the “activating factor of NAD(P)H oxidase activity” value is given as over 20 on PBCV-1 ThyX [9] and 5–7 with Thermotoga maritima ThyX.
